How the values were obtained:
[1] = organism: Homo sapiens; assay: Inhibition of LTB4 production from whole human blood.; format: functional
[2] = tested on: Mus musculus; assay: Ex vivo inhibition of LTB4 production in mouse whole blood following 10 mg/kg p.o. administration.; format: functional; settings: route oral
[3] = target: T1, Leukotriene A-4 hydrolase (Homo sapiens, UniProt P09960); assay: In vitro inhibition of recombinant human leukotriene A4 hydrolase.
T1 sequence (P09960 whole entry): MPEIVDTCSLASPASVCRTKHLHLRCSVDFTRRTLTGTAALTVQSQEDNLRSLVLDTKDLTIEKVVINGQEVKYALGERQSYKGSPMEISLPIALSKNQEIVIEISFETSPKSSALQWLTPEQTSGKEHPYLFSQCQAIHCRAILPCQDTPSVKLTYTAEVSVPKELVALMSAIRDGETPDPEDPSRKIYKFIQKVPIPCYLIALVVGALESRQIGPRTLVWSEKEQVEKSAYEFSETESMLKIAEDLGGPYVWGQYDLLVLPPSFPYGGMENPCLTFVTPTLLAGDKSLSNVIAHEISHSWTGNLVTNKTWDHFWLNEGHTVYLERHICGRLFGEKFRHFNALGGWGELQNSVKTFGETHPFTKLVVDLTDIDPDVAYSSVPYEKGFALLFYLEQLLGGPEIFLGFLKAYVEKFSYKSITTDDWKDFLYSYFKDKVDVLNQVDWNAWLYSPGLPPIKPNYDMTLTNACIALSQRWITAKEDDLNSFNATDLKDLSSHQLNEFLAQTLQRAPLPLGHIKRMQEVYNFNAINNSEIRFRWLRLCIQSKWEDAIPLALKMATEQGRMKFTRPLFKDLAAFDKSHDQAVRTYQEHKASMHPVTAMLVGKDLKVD

Structure (SMILES)	IC50 [1] [nM]	inhibition in vivo at 10 mg/kg [2] [%]	IC50 [3] [nM]
Oc1ccc2ncn(CCOc3ccc(Cc4ccccc4)cc3)c2n1	940	72	500
N#Cc1ccc2c(ncn2CCOc2ccc(Cc3ccccc3)cc2)n1	150	21	0.8
c1ccc(Cc2ccc(OCCn3cnc4ccccc43)cc2)cc1	13200	46	
N#Cc1nccc2c1ncn2CCOc1ccc(Cc2ccccc2)cc1	100	84	31

The remaining compounds from weak to strong by IC50 [1], led by results:

IC50 [1] [nM]	Structure (SMILES)	inhibition in vivo at 10 mg/kg [2] [%]	IC50 [3] [nM]
9150	c1ccc(Cc2ccc(OCCn3cnc4cccnc43)cc2)cc1		> 3000
690	c1ccc(Cc2ccc(OCCn3cccc4ncnc3-4)cc2)cc1		
330	c1ccc(Cc2ccc(OCCn3cnc4cnccc43)cc2)cc1	64	
330	c1ccc(Cc2ccc(OCCn3cnc4ncccc43)cc2)cc1	18	

Reference: ChEMBL document CHEMBL1136655, “Synthesis of imidazopyridines and purines as potent inhibitors of leukotriene A4 hydrolase” (Bioorg Med Chem Lett, 2003)
